Assay type in all cases: in vivo
The test system of test [1] is larvae of the banded cucumber beetle (Diabrotica balteata). As to the kind of experiment: Diabrotica balteata spray test. The following applies: Diabrotica balteata, 168 h; 100 g/ha (=32 μg/well), wheat seeds, after 7 days; read-out: efficacy (seedlings grown). In a few lines:
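Germinated wheat seedlings (5 per well, on agar) sprayed with compound in acetone/DMF with emulsifier-containing water, then infested with 10–20 Diabrotica balteata larvae. Efficacy (%) scored after 7 days from seedling growth: 100% = growth as untreated uninfested control, 0% = no seedlings grown.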

Test [2] concerns green peach aphid (Myzus persicae). As to the kind of experiment: Myzus persicae oral test. The following applies: 120 h. The method, then: Solvent: 100 parts by weight acetone
To produce a suitable preparation of active compound, 1 part by weight of active compound is mixed with the stated amount of solvent, and the concentrate is diluted with water to the desired concentration.
50 μL compound solution is filled in microtiter plates and 150 μL IPL41 insect medium (33%+15% sugar) is added to obtain a total volume of 200 μL per well. Afterwards the plates are sealed with parafilm through which a mixed population of the green peach aphid (Myzus persicae) can suck on the compound preparation.
(§1) After 5 days mortality in % is determined. 100% means all aphids have been killed and 0% means none of the aphids have been killed.

The subject of test [3] is larvae of the southern green stink bug (Nezara viridula). As to the kind of experiment: Nezara viridula spray test. The following applies: Nezara viridula, in Hordeum vulgare, 96 h. The method, then: Nezara viridula—Spray Test
(§2) Solvent: 78.0 parts by weight of acetone • • 1.5 parts by weight of dimethylformamide
(§3) Emulsifier: alkylarylpolyglycol ether
To produce a suitable preparation of active compound, 1 part by weight of active compound is mixed with the stated amount of solvent, and the concentrate is diluted with water, containing an emulsifier concentration of 1000 ppm, to the desired concentration. Further test concentrations are prepared by dilution with emulsifier containing water.
Barley plants (Hordeum vulgare) are sprayed with a test solution containing the desired concentration of the active ingredient and are infested with larvae of the southern green stink bug (Nezara viridula).
After 4 days mortality in % is determined. 100% means all the stink bugs have been killed; 0% means none of the stink bugs have been killed.

The subject of test [4] is brown planthopper (Nilaparvata lugens). As to the kind of experiment: Nilaparvata lugens spray test. As to conditions: Nilaparvata lugens, in Oryza sativa, 96 h. As to the method:
Nilaparvata lugens—Spray Test
as §2, §3
(§4) To produce a suitable preparation of active compound, 1 part by weight of active compound is mixed with the stated amount of solvents and is diluted with water, containing an emulsifier concentration of 1000 ppm, to the desired concentration. Further test concentrations are prepared by dilution with emulsifier containing water.
Rice plants (Oryza sativa) are sprayed with a preparation of the active ingredient of the desired concentration and the plants are infested with the brown planthopper (Nilaparvata lugens).
After 4 days mortality in % is determined. 100% means all planthoppers have been killed and 0% means none of the planthoppers have been killed.

The test system of test [5] is fall armyworm larvae (Spodoptera frugiperda). As to the kind of experiment: Spodoptera frugiperda spray test (SPODFR). As to conditions: in Zea mays, 168 h. The method, boiled down: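 Compound in acetone/dimethylformamide, diluted with water containing 1000 ppm alkylarylpolyglycol ether emulsifier. Maize leaf sections sprayed, dried, then infested with fall armyworm larvae. Mortality (%) scored after 7 days, 100% meaning all caterpillars killed.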

Test [6] concerns Rhipicephalus (Boophilus) microplus larvae (strain Parkhurst, resistant against synthetic pyrethroids). Kind of test: Rhipicephalus (Boophilus) microplus in-vitro contact test, larval cattle tick. As to conditions: Rhipicephalus microplus; 1 μg/cm^2 (=100 g/ha), after 48 hours; read-out: efficacy (larvae dead or moribund). In a few lines:
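Compound in acetone coated on glass tube inner walls; 900 ppm solution gives 5 μg/cm^2. Pyrethroid-resistant Parkhurst larvae (20-50 per tube) held at 27° C., 85% relative humidity; efficacy assessed after 48 h by scoring negative geotactic behavior after tapping larvae to tube bottom.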

Test [7] relates to adult cat fleas (Ctenocephalides felis). Kind of test: Ctenocephalides felis in-vitro contact test, adult cat flea. The following applies: Ctenocephalides felis; 1 μg/cm^2 (=100 g/ha), after 48 hours; read-out: efficacy (fleas dead or moribund).
The test system of test [8] is adult brown dog ticks (Rhipicephalus sanguineus). Kind of test: Rhipicephalus sanguineus in-vitro contact test, adult brown dog ticks. The following applies: Rhipicephalus sanguineus; 1 μg/cm^2 (=100 g/ha), after 48 hours; read-out: efficacy (ticks dead or moribund). In a few lines: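 Compound in acetone was coated onto inner walls of glass tubes by rotation (2 h, 30 rpm); 900 ppm gives 5 μg/cm^2. After drying, 5-10 adult ticks were enclosed per tube at room temperature; after 48 h, heat-escape test at 45-50° C scored dead/moribund ticks as % efficacy.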

For test [9], the system named is green peach aphid (Myzus persicae). Kind of test: Myzus persicae spray test (MYZUPE). The following applies: in Brassica rapa, foliar, 120 h. As to the method:
Myzus persicae—Spray Test
Solvent: 78.0 parts by weight acetone • 1.5 parts by weight dimethylformamide
as §3, §4
Chinese cabbage (Brassica pekinensis) leaf disks infected with all instars of the green peach aphid (Myzus persicae), are sprayed with a preparation of the active ingredient of the desired concentration.
as §1
Myzus persicae—Spray Test (MYZUPE
After the specified period of time, mortality in % is determined. 100% means all aphids have been killed and 0% means none of the aphids have been killed.

The subject of test [10] is adult unfed cat fleas (Ctenocephalides felis). As to the kind of experiment: Ctenocephalides felis oral test. As to conditions: 48 h, 100 ppm in citrated cattle blood, after 2 days. As to the method: Ctenocephalides felis—Oral Test
(§5) Solvent: Dimethyl Sulfoxide
To produce a suitable preparation of active compound, 10 mg of active compound are dissolved in 0.5 mL solvent, and the concentrate is diluted with citrated cattle blood to the desired concentration.
Approximately 20 adult unfed cat fleas (Ctenocephalides felis) are placed in a flea chamber whose top and bottom is covered with gauze. A chamber whose bottom is sealed with parafilm, is filled with the blood-compound solution and placed on top of the flea chamber, so that the fleas can suck the blood. The blood chamber is heated to 37° C. whereas the flea chamber is kept at room temperature.
After 2 days mortality in % is determined. 100% means all the fleas have been killed; 0% means none of the fleas have been killed.

Test [11] has as its system adult engorged female ticks (Rhipicephalus microplus). As to the kind of experiment: Rhipicephalus (Boophilus) microplus injection test. The following applies: 4 μg/tick, after 7 days. As to the method:
Rhipicephalus (Boophilus) Microplus—Injection Test
as §5
To produce a suitable preparation of active compound, 10 mg of active compound are dissolved in 0.5 mL solvent, and the concentrate is diluted with solvent to the desired concentration.
Five adult engorged female ticks (Rhipicephalus microplus) are injected with 1 μL compound solution into the abdomen. The ticks are transferred into replica plates and incubated in a climate chamber.
After 7 days egg deposition of fertile eggs is monitored. Eggs where fertility is not visible are stored in a climate chamber till hatching after about 42 days. An efficacy of 100% means all eggs are infertile; 0% means all eggs are fertile.

Test [12] has as its system adult Blattella germanica strain PAULINIA
Kind of test: Blattella germanica test (BLTTGE surface treatment & contact assay). The following applies: surface concentration 20 mg/m^2, 30 min exposure, 24 hours after contact, read-out: efficacy (mortality). As to the method: Blattella germanica Test (BLTTGE Surface Treatment & Contact Assay
(§6) Solvent: Aceton+2000 ppm rapeseed oil methyl ester (RME)
In order to produce a sufficient, active ingredient containing solution it is necessary to solve the test compound in the solvent-mix (acetone at 2 mg/ml/RME 2000 ppm). This solution is pipetted onto a glazed tile and after evaporation of the acetone, adult animals of the species Blattella germanica strain PAULINIA are placed onto the dried surface. The exposure time is 30 minutes.
Mortality in percent (%) is determined 24 hours after contact of the insects to the treated surface. 100% mortality means that all tested insects are dead, whereas 0% means that no insect died.

The subject of test [13] is adult mosquitoes Aedes aegypti strain MONHEIM. Kind of test: Aedes aegypti test (AEDSAE surface treatment & contact assay). As to conditions: surface concentration 4 mg/m^2, 30 min exposure, 24 hours after contact, read-out: efficacy (mortality). The method, then:
Aedes aegypti Test (AEDSAE Surface Treatment & Contact Assay
as §6
In order to produce a sufficient, active ingredient containing solution it is necessary to solve the test compound in the solvent-mix (acetone at 2 mg/ml/RME 2000 ppm). This solution is pipetted onto a glazed tile and after evaporation of the acetone, adult mosquitoes of the species Aedes aegypti strain MONHEIM are placed onto the dried surface. The exposure time is 30 minutes. Mortality in percent (%) is determined 24 hours after contact of the insects to the treated surface. 100% mortality means that all tested insects are dead, whereas 0% means that no insect died.

SMILES strings stand for the structures.

What is called mortality is the share of the test organisms that died.

On to `C[C@H](NC(=O)c1cc(C(F)(F)F)cc(S(C)(=O)=O)c1)c1ncnn1-c1cnc(C(N)=O)cn1` [Example I-030], for which, in [1], the pest or weed control at 32 µg/disc, 100 g/ha was found to be 100%. Further, the mortality at 20 ppm in test [2] was found to be 100%. The mortality at 500 g/ha in [3] is 90%.
On to `CCN(C)C(=O)c1cnc(-n2ncnc2[C@H](C)NC(=O)c2cc(OC(F)(F)F)cc(S(C)(=O)=O)c2)cn1` [Example I-018], for which the mortality at 500 g/ha in test [4] and in test [3] was 100% in each case. The mortality at 100 g/ha in [5] and in test [9] was 100% each time. Further, the pest or weed control at 1 µg/cm2 in [6] amounted to 90%; in test [7], 100%. In addition, the pest or weed control at 32 µg/disc, 100 g/ha in test [1] was found to be 100%. For the same molecule, the pest or weed control at 1 µg/cm2, 100 g/ha in [8] amounted to 100%. The same molecule gave a mortality at 20 ppm in test [2] of 100%.
For `C[C@H](NC(=O)c1cc(C(F)(F)F)cc(C(F)(F)F)c1)c1ncnn1-c1cnc(C(N)=O)cn1` [Example I-010], the mortality at 500 g/ha in [4] and in test [3] was 100% throughout. For the same molecule, the mortality at 100 ppm in test [10] worked out at 100%. Further, the mortality at 100 g/ha stood at 100% in test [5] and 90% in test [9]. Also, the pest or weed control at 1 µg/cm2 in [6] and in [7] was 100% in each case. The “efficacy (infertile eggs)” value in [11] is listed as 100%. Further, in test [8], the pest or weed control at 1 µg/cm2, 100 g/ha turned out to be 100%.
Turning to `C[C@H](NC(=O)c1cc(OC(F)(F)F)cc(S(C)(=O)=O)c1)c1ncnn1-c1cnc(C(=O)N(C)C2CC2)cn1` [Example I-004], the mortality at 500 g/ha in test [4] came out at 100%; in [3], 70%. The same molecule had a mortality at 100 ppm in test [10] of 100%. Besides, the mortality at 100 g/ha in test [5] was 100%; in test [9] it was 90%. Further, the pest or weed control at 1 µg/cm2 in test [6] and in test [7] was 100% each time. Also, the “efficacy (infertile eggs)” value in test [11] is listed as 100%. For the same molecule, the pest or weed control at 32 µg/disc, 100 g/ha in test [1] was determined as 100%. Besides, the pest or weed control at 1 µg/cm2, 100 g/ha in test [8] was found to be 100%. This molecule also returned a mortality at 20 ppm in test [2] of 100%.
Take `Cc1nc([C@H](C)NC(=O)c2cc(C(F)(F)F)cc(C(F)(F)F)c2)n(-c2cnc(C(=O)N(C)C3CC3)cn2)n1` [Example I-001]: the mortality at 500 g/ha in test [4] and in test [3] was 100% each time. Also, the mortality at 100 ppm in test [10] came to 100%. Further, the mortality at 100 g/ha in test [5] is 100%; in test [9], 90%. Moreover, the pest or weed control at 1 µg/cm2 in test [6] and in test [7] was 100% each time. The “efficacy (infertile eggs)” value in test [11] turned out to be 100%. The pest or weed control at 1 µg/cm2, 100 g/ha in [8] was determined as 100%.
On to `CNC(=O)c1cnc(-n2ncnc2[C@H](C)NC(=O)c2cc(OC(F)(F)F)cc(S(C)(=O)=O)c2)cn1` [Example I-019], for which the mortality at 500 g/ha in test [4] and in test [3] was 100% each time. Besides, the mortality at 100 g/ha in test [5] was 100%; in [9] it was 90%. Besides, the pest or weed control at 1 µg/cm2 in [6] and in test [7] was 100% each time. For the same molecule, the pest or weed control at 32 µg/disc, 100 g/ha in [1] is 100%. Further, the mortality at 20 mg/m2 in [12] lay in the range of 80 to 100%. Also, in [8], the pest or weed control at 1 µg/cm2, 100 g/ha amounted to 100%. Also, the mortality at 4 mg/m2 in [13] is 80 to 100%.

The record behind these values is patent publication US20240368125A1, “NOVEL PYRAZINYL-TRIAZOLE COMPOUNDS AS PESTICIDES” (Bayer Aktiengesellschaft, priority 2021, published 2024).
